# Experimental data from ChEMBL document CHEMBL4396888, “Design and Synthesis of Potent, Selective Inhibitors of Protein Arginine Methyltransferase 4 against Acute Myeloid Leukemia” (J Med Chem, 2019).
# Active and inactive are the calls of the source. The rule behind the calls is not given here.
# Tests used:
# Mus musculus [1] = assay: In vivo inhibition of PRMT4 in nude BALB/c mouse xenografted with human MOLM13 cells assessed as reduction in asymmetric dimethyl arginine level at 100 mg/kg, po administered daily for 18 days measured 6 hrs post-last dose by Western blot analysis; format: functional, organism-based
# [2] = molecular target: Histone-lysine N-methyltransferase EHMT2 (Homo sapiens) (UniProt Q96KQ7); assay: Inhibition of G9a (unknown origin) up to 50 uM preincubated for 15 mins followed by substrate addition and measured after 60 mins by AlphaLisa assay
# [3] = Selectivity ratio of IC50 for antiproliferative activity against human MOLM13 cells to IC50 for inhibition of PRMT4 in human MOLM13 cells assessed as reduction in PABP1 dimethylation
# [4] = molecular target: Histone-lysine N-methyltransferase, H3 lysine-79 specific (Homo sapiens) (UniProt Q8TEK3); assay: Inhibition of DOT1L (unknown origin) up to 50 uM preincubated for 15 mins followed by substrate addition and measured after 60 mins by AlphaLisa assay
# [5] = Cmax in ICR mouse at 10 mg/kg, po administered via gavage by mass spectrometric analysis; format: ADME, organism-based; set-up: dose 10 mg/kg, route oral; conditions: in vivo
# [6] = AUC (0 to infinity) in ICR mouse at 3 mg/kg, iv by mass spectrometric analysis; format: ADME, organism-based; set-up: dose 3 mg/kg, route intravenous, time infinity; conditions: in vivo
# [7] = Selectivity ratio of IC50 for antiproliferative activity against human MOLM13 cells to IC50 for inhibition of PRMT4 in human MOLM13 cells assessed as reduction in BAF155 dimethylation
# [8] = molecular target: T1, Histone-arginine methyltransferase CARM1 (Homo sapiens, UniProt Q86X55); assay: Inhibition of PRMT4 in human MOLM13 cells assessed as reduction in BAF155 dimethylation measured after 96 hrs by Western blotting analysis; format: cell-based
# T1 sequence (Q86X55 whole entry): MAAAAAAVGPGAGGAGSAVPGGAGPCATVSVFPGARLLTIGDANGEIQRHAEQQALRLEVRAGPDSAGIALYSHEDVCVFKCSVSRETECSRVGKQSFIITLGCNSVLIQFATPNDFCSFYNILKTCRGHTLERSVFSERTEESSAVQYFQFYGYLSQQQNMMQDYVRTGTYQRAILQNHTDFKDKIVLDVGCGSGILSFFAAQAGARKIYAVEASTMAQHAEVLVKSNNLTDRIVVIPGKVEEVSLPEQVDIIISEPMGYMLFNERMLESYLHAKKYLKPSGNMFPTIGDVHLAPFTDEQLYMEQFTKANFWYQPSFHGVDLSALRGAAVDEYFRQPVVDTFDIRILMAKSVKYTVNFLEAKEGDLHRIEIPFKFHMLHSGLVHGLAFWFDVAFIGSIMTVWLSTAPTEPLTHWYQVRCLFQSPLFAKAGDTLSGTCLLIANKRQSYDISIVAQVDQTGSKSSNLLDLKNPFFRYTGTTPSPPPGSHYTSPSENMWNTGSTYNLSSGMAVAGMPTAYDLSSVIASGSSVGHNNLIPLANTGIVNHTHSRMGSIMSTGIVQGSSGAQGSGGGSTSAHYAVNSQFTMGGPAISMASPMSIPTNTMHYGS
# [9] = molecular target: Protein arginine N-methyltransferase 8 (Homo sapiens, UniProt Q9NR22); assay: Inhibition of PRMT8 (unknown origin) preincubated for 15 mins followed by substrate addition and measured after 60 mins by AlphaLisa assay
# [10] = Volume of distribution at steady state in ICR mouse at 3 mg/kg, iv by mass spectrometric analysis; format: ADME, organism-based; conditions: in vivo, read-out: Vdss
# [11] = Toxicity in nude BALB/c mouse xenografted with human MOLM13 cells assessed as body weight loss at 100 mg/kg, po administered daily for 18 days measured 2 to 3 times a week during compound dosing; format: organism-based; conditions: in vivo, 432 h
# [12] = molecular target: Protein arginine N-methyltransferase 1 (Homo sapiens, UniProt Q99873); assay: Inhibition of PRMT1 (unknown origin) preincubated for 15 mins followed by substrate addition and measured after 60 mins by AlphaLisa assay
# [13] = Toxicity in nude BALB/c mouse xenografted with human MOLM13 cells assessed as visible changes at 100 mg/kg, po administered daily for 18 days; format: organism-based; conditions: in vivo, 432 h
# [14] = Half life in ICR mouse at 3 mg/kg, iv by mass spectrometric analysis; format: ADME, organism-based; conditions: in vivo
# MOLM-13 [15] = assay: Cell cycle arrest in human MOLM13 cells assessed as increase in accumulation at G0/G1-phase measured after 72 hrs by propidium iodide staining-based flow cytometry; format: functional
# MV4-11 = assay: Antiproliferative activity against human MV4-11 cells measured after 6 days by CCK8/SRB assay; format: functional, cell-based
# [16] = AUC (0 to infinity) in ICR mouse at 10 mg/kg, po administered via gavage by mass spectrometric analysis; format: ADME, organism-based; set-up: dose 10 mg/kg, time infinity, route oral; conditions: in vivo
# [17] = Half life in ICR mouse at 10 mg/kg, po administered via gavage by mass spectrometric analysis; format: ADME, organism-based; conditions: in vivo
# [18] = molecular target: Protein arginine N-methyltransferase 6 (Homo sapiens, UniProt Q96LA8); assay: Inhibition of PRMT6 (unknown origin) preincubated for 15 mins followed by substrate addition and measured after 60 mins by AlphaLisa assay
# [19] = AUC (0 to last) in ICR mouse at 3 mg/kg, iv by mass spectrometric analysis; format: ADME, organism-based; set-up: dose 3 mg/kg, route intravenous, time 0 - last; conditions: in vivo
# [20] = Drug level in ICR mouse plasma at 10 mg/kg, po administered via gavage measured after 0.25 to 24 hrs by mass spectrometric analysis; format: ADME, organism-based; conditions: in vivo
# MOLT-4 = assay: Antiproliferative activity against human MOLT4 cells measured after 6 days by CCK8/SRB assay; format: functional, cell-based
# RS4-11 = assay: Antiproliferative activity against human RS4:11 cells measured after 6 days by CCK8/SRB assay; format: functional, cell-based
# [21] = AUC (0 to last) in ICR mouse at 10 mg/kg, po administered via gavage by mass spectrometric analysis; format: ADME, organism-based; set-up: dose 10 mg/kg, route oral, time 0 - last; conditions: in vivo
# [22] = Tmax in ICR mouse at 10 mg/kg, po administered via gavage by mass spectrometric analysis; format: ADME, organism-based; conditions: in vivo
# MOLM-13 [23] = assay: Cell cycle arrest in human MOLM13 cells assessed as decrease in accumulation at S-phase measured after 72 hrs by propidium iodide staining-based flow cytometry; format: functional
# [24] = molecular target: Protein arginine N-methyltransferase 5 (Homo sapiens, UniProt O14744); assay: Inhibition of PRMT5 (unknown origin) preincubated for 15 mins followed by substrate addition and measured after 60 mins by AlphaLisa assay
# Mus musculus [25] = assay: In vivo inhibition of PRMT4 in nude BALB/c mouse xenografted with human MOLM13 cells assessed as reduction in BAF155 dimethylation at 100 mg/kg, po administered daily for 18 days measured 6 hrs post-last dose by Western blot analysis; format: functional, organism-based
# [26] = Drug level in tumor of nude BALB/c mouse xenografted with human MOLM13 cells at 100 mg/kg, po administered daily for 18 days measured 6 hrs post-last dose by LC-MS/MS analysis; format: ADME, organism-based, Neoplasm; conditions: read-out: Drug uptake
# [27] = molecular target: Protein arginine N-methyltransferase 3 (Homo sapiens, UniProt O60678); assay: Inhibition of PRMT3 (unknown origin) preincubated for 15 mins followed by substrate addition and measured after 60 mins by AlphaLisa assay
# HEL = assay: Antiproliferative activity against HEL cells measured after 6 days by CCK8/SRB assay; format: functional, cell-based; conditions: Homo sapiens
# Histone-lysine N-methyltransferase, H3 lysine-79 specific (Homo sapiens), sequence (Q8TEK3 whole entry, looked up): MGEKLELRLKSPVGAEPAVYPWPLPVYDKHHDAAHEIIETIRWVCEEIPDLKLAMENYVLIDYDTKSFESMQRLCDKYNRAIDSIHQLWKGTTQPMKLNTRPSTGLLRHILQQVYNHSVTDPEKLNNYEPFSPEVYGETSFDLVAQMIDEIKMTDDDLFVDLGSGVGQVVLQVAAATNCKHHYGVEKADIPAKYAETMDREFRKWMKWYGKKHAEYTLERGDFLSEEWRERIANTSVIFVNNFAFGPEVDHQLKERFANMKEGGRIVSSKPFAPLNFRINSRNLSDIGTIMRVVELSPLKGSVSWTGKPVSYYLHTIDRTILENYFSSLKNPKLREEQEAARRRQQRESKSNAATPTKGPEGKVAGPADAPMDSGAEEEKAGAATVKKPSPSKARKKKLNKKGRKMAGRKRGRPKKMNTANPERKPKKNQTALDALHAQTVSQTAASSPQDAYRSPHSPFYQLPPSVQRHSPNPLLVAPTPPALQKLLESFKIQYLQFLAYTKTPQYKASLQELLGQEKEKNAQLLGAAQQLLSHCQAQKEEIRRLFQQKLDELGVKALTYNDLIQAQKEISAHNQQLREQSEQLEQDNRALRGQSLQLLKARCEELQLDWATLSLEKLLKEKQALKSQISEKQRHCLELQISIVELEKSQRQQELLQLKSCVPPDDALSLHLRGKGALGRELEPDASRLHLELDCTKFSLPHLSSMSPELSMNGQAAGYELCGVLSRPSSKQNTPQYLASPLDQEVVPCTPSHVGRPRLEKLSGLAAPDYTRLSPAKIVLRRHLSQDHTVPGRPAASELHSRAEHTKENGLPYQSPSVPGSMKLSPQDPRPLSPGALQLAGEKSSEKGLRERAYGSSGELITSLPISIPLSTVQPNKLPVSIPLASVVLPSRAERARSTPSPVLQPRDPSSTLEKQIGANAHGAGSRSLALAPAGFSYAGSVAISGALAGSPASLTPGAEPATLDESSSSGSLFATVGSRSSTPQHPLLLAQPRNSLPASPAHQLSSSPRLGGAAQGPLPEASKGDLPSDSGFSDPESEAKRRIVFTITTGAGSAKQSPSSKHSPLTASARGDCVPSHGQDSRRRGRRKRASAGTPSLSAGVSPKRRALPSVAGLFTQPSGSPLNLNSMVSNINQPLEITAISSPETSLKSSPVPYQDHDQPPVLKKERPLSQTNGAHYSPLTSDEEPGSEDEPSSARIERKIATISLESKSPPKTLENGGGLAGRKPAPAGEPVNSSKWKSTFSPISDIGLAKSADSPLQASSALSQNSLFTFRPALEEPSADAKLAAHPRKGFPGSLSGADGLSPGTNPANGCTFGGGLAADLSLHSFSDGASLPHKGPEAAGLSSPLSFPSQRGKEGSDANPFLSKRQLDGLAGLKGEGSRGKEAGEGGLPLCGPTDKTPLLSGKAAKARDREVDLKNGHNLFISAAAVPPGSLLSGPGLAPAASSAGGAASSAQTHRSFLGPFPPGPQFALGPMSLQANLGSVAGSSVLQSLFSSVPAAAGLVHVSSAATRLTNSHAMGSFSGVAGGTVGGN
# Histone-lysine N-methyltransferase EHMT2 (Homo sapiens), sequence (Q96KQ7 whole entry): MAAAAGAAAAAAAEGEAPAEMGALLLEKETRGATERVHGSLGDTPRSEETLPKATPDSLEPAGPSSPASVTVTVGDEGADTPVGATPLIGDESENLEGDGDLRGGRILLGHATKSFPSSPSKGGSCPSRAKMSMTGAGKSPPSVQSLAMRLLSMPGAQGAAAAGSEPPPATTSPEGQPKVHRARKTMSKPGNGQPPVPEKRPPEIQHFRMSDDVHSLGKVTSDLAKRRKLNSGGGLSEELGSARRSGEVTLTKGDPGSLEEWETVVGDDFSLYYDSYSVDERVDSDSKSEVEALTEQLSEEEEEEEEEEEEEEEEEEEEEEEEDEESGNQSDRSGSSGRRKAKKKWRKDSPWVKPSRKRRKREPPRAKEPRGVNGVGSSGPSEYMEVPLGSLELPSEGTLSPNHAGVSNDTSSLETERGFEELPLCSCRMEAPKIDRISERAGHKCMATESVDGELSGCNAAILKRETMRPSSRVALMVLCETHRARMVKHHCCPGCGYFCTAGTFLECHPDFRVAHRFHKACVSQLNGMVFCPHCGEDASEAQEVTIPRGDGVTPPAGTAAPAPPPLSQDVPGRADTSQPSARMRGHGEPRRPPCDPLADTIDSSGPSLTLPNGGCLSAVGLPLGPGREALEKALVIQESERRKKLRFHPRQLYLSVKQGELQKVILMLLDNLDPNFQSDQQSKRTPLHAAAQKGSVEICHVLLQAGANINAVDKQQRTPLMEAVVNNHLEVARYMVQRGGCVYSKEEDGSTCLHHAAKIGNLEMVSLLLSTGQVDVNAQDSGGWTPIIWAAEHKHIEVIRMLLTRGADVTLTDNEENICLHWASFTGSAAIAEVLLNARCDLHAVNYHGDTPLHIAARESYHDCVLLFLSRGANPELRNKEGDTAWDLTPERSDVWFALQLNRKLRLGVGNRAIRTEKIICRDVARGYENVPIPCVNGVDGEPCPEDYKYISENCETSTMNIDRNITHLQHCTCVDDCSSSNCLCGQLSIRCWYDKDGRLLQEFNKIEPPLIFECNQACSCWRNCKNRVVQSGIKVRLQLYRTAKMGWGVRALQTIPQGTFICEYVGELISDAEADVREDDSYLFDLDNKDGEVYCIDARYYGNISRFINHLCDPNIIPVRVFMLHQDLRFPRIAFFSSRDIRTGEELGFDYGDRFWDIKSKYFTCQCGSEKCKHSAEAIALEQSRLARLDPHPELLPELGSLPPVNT
# Protein arginine N-methyltransferase 8, sequence (Q9NR22 whole entry): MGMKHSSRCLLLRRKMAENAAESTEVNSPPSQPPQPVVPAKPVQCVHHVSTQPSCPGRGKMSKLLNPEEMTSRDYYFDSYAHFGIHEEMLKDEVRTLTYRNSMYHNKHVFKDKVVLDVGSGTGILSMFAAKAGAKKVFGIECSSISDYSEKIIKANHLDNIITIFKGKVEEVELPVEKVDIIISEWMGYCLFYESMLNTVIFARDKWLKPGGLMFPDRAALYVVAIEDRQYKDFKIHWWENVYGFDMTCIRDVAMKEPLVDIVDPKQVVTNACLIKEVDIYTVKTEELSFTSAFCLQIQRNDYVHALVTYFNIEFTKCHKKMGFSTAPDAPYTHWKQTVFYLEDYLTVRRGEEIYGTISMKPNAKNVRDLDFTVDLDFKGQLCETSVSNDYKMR
# Protein arginine N-methyltransferase 5, sequence (O14744 whole entry): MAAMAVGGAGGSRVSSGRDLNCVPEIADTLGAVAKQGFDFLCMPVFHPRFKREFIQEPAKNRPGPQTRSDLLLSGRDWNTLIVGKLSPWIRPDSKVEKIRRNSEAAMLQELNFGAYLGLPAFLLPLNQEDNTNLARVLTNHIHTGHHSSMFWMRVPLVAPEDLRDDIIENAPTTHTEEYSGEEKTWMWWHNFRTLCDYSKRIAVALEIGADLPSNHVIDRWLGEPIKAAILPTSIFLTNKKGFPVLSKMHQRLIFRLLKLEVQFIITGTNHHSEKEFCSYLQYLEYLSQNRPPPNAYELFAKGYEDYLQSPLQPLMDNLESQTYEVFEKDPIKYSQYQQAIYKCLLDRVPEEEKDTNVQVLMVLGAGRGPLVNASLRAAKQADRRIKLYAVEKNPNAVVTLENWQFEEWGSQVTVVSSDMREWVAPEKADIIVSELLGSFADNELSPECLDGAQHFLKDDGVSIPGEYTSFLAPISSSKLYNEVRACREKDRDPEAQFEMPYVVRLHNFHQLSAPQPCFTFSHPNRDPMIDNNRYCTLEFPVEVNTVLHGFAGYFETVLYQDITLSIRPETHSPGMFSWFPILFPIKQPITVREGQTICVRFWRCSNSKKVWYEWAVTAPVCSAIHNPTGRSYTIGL
# Protein arginine N-methyltransferase 1, sequence (Q99873 whole entry): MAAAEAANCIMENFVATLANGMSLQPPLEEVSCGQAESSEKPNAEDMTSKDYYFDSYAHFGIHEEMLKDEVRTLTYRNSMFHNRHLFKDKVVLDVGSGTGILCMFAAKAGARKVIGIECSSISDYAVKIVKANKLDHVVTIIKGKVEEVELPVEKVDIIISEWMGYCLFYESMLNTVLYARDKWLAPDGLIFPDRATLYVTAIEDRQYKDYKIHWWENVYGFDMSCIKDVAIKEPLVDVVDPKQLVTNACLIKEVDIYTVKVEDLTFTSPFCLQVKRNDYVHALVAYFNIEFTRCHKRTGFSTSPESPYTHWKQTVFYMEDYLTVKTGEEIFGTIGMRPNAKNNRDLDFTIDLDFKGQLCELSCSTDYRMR
# Protein arginine N-methyltransferase 3, sequence (O60678 whole entry): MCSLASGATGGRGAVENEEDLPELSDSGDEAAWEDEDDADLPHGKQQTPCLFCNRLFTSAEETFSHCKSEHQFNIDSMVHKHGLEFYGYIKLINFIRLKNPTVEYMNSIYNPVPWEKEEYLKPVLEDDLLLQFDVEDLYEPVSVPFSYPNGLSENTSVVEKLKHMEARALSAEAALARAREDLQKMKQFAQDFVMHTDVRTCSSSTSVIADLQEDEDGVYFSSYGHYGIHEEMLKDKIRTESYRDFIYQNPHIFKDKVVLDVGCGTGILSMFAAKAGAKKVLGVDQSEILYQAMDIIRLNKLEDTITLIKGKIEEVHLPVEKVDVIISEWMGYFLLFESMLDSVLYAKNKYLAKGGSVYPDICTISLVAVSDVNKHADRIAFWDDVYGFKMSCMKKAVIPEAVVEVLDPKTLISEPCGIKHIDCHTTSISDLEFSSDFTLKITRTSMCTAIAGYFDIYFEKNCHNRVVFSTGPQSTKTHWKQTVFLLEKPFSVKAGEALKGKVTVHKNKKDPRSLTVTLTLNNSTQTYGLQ
# Protein arginine N-methyltransferase 6, sequence (Q96LA8 whole entry): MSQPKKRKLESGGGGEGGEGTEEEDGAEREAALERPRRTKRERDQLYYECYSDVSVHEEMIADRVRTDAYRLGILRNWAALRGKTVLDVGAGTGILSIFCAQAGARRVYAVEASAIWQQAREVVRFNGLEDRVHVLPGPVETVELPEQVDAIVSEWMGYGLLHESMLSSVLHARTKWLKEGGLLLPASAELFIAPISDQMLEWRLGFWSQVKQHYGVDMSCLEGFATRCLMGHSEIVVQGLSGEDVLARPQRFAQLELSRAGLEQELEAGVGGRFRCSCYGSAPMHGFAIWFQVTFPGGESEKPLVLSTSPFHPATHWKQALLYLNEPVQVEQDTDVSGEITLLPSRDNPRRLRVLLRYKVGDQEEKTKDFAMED
structure (smiles),measurement,setting,value
CNC[C@@H](O)CN1CCc2c(cccc2OCc2ccc(-c3nccs3)cc2)C1,inhibition,Mus musculus [1],Active
same,inhibition,[2],inactive
same,Ratio IC50,[3],10
same,inhibition,[4],inactive
same,Cmax,[5],75.4 ng/mL
same,AUC(0-inf),[6],1160 ng·h/mL
same,Ratio IC50,[7],10
same,IC50,[8],369 nM
same,IC50,[9],3.7 µM
same,Vd,[10],42.6 L/kg
same,Activity,[11],Non-Toxic
same,IC50,[12],8.6 µM
same,Activity,[13],Non-Toxic
same,half-life,[14],726 min
same,Activity,MOLM-13 [15],Dose-dependent effect
same,Activity,MV4-11,Dose-dependent effect
same,AUC(0-inf),[16],3030 ng·h/mL
same,half-life,[17],1450 min
same,IC50,[18],7.9 µM
same,AUC(0-t),[19],869 ng·h/mL
same,concentration,[20],120 nM
same,Activity,MOLT-4,Dose-dependent effect
same,Activity,RS4-11,Dose-dependent effect
same,AUC(0-t),[21],1410 ng·h/mL
same,Tmax,[22],8 h
same,Activity,MOLM-13 [23],Dose-dependent effect
same,IC50,[24],> 30 µM
same,inhibition,Mus musculus [25],Active
same,concentration at 6 h,[26],80700 ng/g
same,IC50,[27],> 10 µM
same,Activity,HEL,Dose-dependent effect
